Measurements: patent US20100184678A1, “USE OF A PEPTIDE AS A THERAPEUTIC AGENT” (priority 2007, published 2010)
Where no end group is shown, it is not given here.

Key:
HIV-1IIIB = assay: HIV-1 antiviral assay in CEM-SS cells (MTS readout); conditions: HIV-1IIIB in CEM-SS cells
HCMV strain AD169 = assay: HCMV plaque formation assay in MRC-5 cells; type: cell-based; conditions: for inhibition of HCMV plaque formation as compared to the virus control experiment: 10 micrograms per ml, MRC-5 cells, 7-10 days
Text: Ganciclovir was used as positive control.

[1] = test system: hepatitis B virus (HBV) ayw strain; assay: HBV assay in HepG2-2.2.15 cells (secreted HBV DNA, TaqMan PCR); type: cell-based; conditions: 10 micrograms per ml, HepG2-2.2.15, six days
A549 cells [2] = assay: Apoptosis induction assay (Annexin-5); type: cell-based, human; conditions: 10 micrograms per ml; 24 hours
Experimental: Human A549 cells (carcinomic human alveolar basal epithelial cells) were utilized in the experiments employing the Annexin-5 apoptosis assay. […] Test peptides—10 micrograms per ml—were exposed for 24 hours to the A549 cells before they were analyzed for signs of apoptosis.

A549 cells [3] = assay: Apoptosis prevention assay (C2 ceramide, Annexin-5); type: cell-based, human; conditions: 10 micrograms per ml, 30 min pretreatment, then C2 ceramide
Experimental: Human A549 cells (carcinomic human alveolar basal epithelial cells) were utilized in the experiments employing the Annexin-5 apoptosis assay. […] A549 cells were pretreated for 30 min with test peptides—10 micrograms per ml—followed by the exposure to C2 ceramide.

murine spleen cells = assay: Th1/Th2 cytokine profiling assay (Ovalbumin-restimulated spleen cells); type: cell-based, Balb/c mice; conditions: 10 micrograms per ml, 72 hours; for production of IFN-gamma (decreased by %) / production of IL-4 (decreased by %) / production of IL-5 (decreased by %): number = decrease; for production of TNF-alpha (induced by %): number = increase
[4] = test system: Primary Human endothelial cells (HUVEC); assay: Endothelial cell migration assay; type: cell-based; conditions: 10 micrograms per ml; 22 hours
Experimental: Thereafter, designated concentration of testing peptides—10 micrograms per ml—was added in duplicate wells.

HUVEC = assay: Endothelial tube formation assay; type: cell-based, human; conditions: 10 micrograms per ml; 20 hours
Text: Positive control was vehicle only. […] Raw data were expressed as average tubule lenghs in pixels±standard deviation.

## Cc1cn([C@H]2C[C@H](N=[N+]=[N-])[C@@H](CO)O2)c(=O)[nH]c1=O [AZT]
HIV-1IIIB
  antiviral activity of positive control compounds: expected levels of antiviral activity

## CC(C)(C)NC(=O)[C@@H]1CN(Cc2cccnc2)CCN1C[C@@H](O)C[C@@H](Cc1ccccc1)C(=O)N[C@H]1c2ccccc2C[C@H]1O [indinavir]
HIV-1IIIB
  antiviral activity of positive control compounds: expected levels of antiviral activity

## Nc1nc(O)c2ncn(COC(CO)CO)c2n1 [Ganciclovir, reference compound]
HCMV strain AD169; HCMV in MRC-5 cells
  antiviral activity of positive control compound: expected levels of antiviral activity

## His-Pro-Leu-Gln-Lys-Thr-Tyr-OH (HPLQKTY-OH) [Peptide 1]
[1]
  inhibition of HBV replication as compared to the virus control infection: 25.3%
HCMV strain AD169
  inhibition of HCMV plaque formation as compared to the virus control experiment: 0.3%
A549 cells [2]
  induction of apoptosis on human lung cells: did not show any significant induction
A549 cells [3]; increase of apoptosis
  induction of apoptosis on ceramide-induced apoptosis: 9.7%
Murine spleen cells
  production of IL-2 (change): did not significantly change
  production of IFN-gamma (decreased by %): did not significantly change
  production of IL-4 (decreased by %): 30.9%
  production of IL-5 (decreased by %): did not significantly change
  production of TNF-alpha (induced by %): 31.3%
[4]
  inhibition of the migration of human endothelial cells: 4%
HUVEC
  inhibition of the tube formation of human endothelial cells: 6%

## His-Ser-Asp-Gly-Ile-Phe-Thr-Asp-Ser-Tyr-Ser-Arg-Tyr-Arg-Lys-Gln-Met-Ala-Val-Lys-Lys-Tyr-Leu-Ala-Ala-Val-Leu-NH2 (HSDGIFTDSYSRYRKQMAVKKYLAAVL-NH2) [Peptide 2]
[1]
  inhibition of HBV replication as compared to the virus control infection: 39.1%
HCMV strain AD169
  inhibition of HCMV plaque formation as compared to the virus control experiment: did not inhibit
A549 cells [2]
  induction of apoptosis on human lung cells: 3.6%
A549 cells [3]; protection
  prevention of apoptosis on ceramide-induced apoptosis: 13.7%
Murine spleen cells
  production of IL-2 (change): did not significantly change
  production of IFN-gamma (decreased by %): 62.9%
  production of IL-4 (decreased by %): did not significantly change
  production of IL-5 (decreased by %): 43.3%
  production of TNF-alpha (induced by %): did not significantly change
[4]
  inhibition of the migration of human endothelial cells: did not inhibit
HUVEC
  inhibition of the tube formation of human endothelial cells: did not inhibit
